According to patent US9937235B2, “Lipidated peptides as anti-obesity agents” (USTAV ORGANICKE CHEMIE A BIOCHEMIE AKADEMIE VED CR, V.V.I, priority 2012, dated 2018):
Where a SMILES comes first, the peptide text is derived from it. Where no end group is shown, it is not given here. [ ]: non-standard residue; d: D form. The star is where a group is joined. 1Nal = N[C@@H](Cc1cccc2ccccc12)C(=O)O; Lauroyl = CCCCCCCCCCCC(=O)*; Nle = CCCC[C@H](N)C(=O)O; Octanoyl = CCCCCCCC(=O)*; Dap = NC[C@H](N)C(=O)O

Experiments:
[1] = target: T1, rat PrRP receptor (GPR10) in RC-4B/C cells (Rattus norvegicus, UniProt Q64121); assay: Competitive binding to rat pituitary RC-4B/C cells; settings: ^125I-rat PrRP31, RC-4B/C cells
T1 construct: host or cells: RC-4B/C rat pituitary cell line
T1 sequence (Q64121 1-370): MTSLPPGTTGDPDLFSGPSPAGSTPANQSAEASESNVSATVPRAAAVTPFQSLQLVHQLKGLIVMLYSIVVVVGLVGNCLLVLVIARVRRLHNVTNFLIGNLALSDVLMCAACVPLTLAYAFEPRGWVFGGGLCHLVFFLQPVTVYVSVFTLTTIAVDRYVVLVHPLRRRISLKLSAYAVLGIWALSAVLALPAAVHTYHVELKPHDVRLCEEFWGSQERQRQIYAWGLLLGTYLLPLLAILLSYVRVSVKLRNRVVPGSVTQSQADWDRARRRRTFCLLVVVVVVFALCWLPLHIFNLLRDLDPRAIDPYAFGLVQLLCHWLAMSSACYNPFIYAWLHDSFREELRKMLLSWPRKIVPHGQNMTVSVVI
Method: Competitive binding experiments were performed according to Motulsky and Neubig (Motulsky, A., et al., “Analyzing radioligand binding data,” Curr Protoc Neurosci, Chapter 7, Unit 7.5, 2002). The rat pituitary cell line RC-4B/C (ATCC, Manassas, USA) was grown on 24-well plates which had their bottom coated with polyethyleneimine. The cells were grown to the optimal density of 300-450 thousand per well. […] Plates were incubated for 60 minutes at room temperature. After incubation, the cells were solubilized in 0.1 mol/l solution of NaOH and the radioactivity bound to the cells was counted using a γ-counter. The experiments were performed in duplicate and repeated at least three times. For evaluation of competitive binding experiments, the program Graph Pad Prism Software (San Diego, Calif., USA) was used. A method of nonlinear regression assuming one-site binding was used.

[2] = system: MAPK/ERK1/2 signaling pathway in RC-4B/C cells; assay: MAPK/ERK1/2 signaling in RC-4B/C cells (Western blot); format: cell-based, rat; settings: 10^−6 mol·l^−1, 5 minute incubation
Method: RC-4B/C cells, which were used to determine if lipidated PrRP20 analogs are able to initiate the MAPK/ERK1/2 signaling pathway, were grown in 6-well plates up to the optimal density of […]. Seventeen hours before sample harvest, the growth medium was replaced by a serum-free medium lacking epidermal growth factor (EGF). The respective lipidated PrRP analog was added to each well in the final concentration of 10^−6 mol·l^−1. After a 5 minute incubation at 37° C., the plate was placed on ice and each well was rinsed three times with PBS pH 7.4 (137 mmol·l^−1 NaCl, 2.7 mmol·l^−1 KCl, 8 mmol·l^−1 Na2HPO4.2H2O a 1.76 mmol·l^−1 KH2PO4) and cooled to 4° C. […] Samples were collected in at least three independent experiments.
To determine if the lipidated PrRP20 analogs initiated the MAPK/ERK1/2 signaling pathway, Western blot analysis was used. Electrophoresis was performed on 5%/12% polyacrylamide gel in the presence of SDS (SDS-PAGE) on the instrument MiniProtean 3 (BioRad, Herkules, Calif., USA). Samples that were loaded on the gel were first disintegrated by ultrasound, then heated at 100° C. for 2 minutes, and centrifuged for 5 minutes at 500×g at room temperature. […] Electrophoresis was performed at a constant voltage of 100 V for 10 minutes, or for 60 minutes at 150 V.
To show the presence of phosphorylated proteins in the samples, the proteins from the SDS-PAGE gel were transferred to the Immobilon™-P PVDF (polyvinylidene difluoride) membrane (Sigma-Aldrich, USA). The transfer was performed in blotting buffer at pH 8.3 (25 mmol·l^−1 Tris, 192 mmol·l^−1 glycine and 20% methanol) for 20 hours at 4° C. at a constant voltage of 30 V.
After the protein transfer to the PVDF membrane, the membranes were washed for 5 minutes in TBS washing buffer (20 mmol·l^−1 Tris, 140 mmol·l^−1 NaCl and 0.1% Tween-20) and then incubated for 1 hour in blocking buffer (TBS with 5% non-fat milk powder and 5 mmol·l^−1 Na3VO4 and 50 mmol·l^−1 NaF) at room temperature. Further, the membranes were washed three times for 5 minutes using the TBS washing buffer. The membranes were then incubated with the primary antibody against phospho-p44/42 MAPK(Thr202/Tyr204) (Cell Signaling Technology, Beverly, USA) which was diluted in blocking buffer at 1:1000. After the next three washes with the TBS washing buffer for 5 minutes, the membranes were incubated for 1 hour with rabbit secondary antibody labeled with peroxidase (Sigma, St. Louis, USA) which was diluted in blocking buffer at 1:12,000.
The membranes were then washed three times in TBS washing buffer for 5 minutes and then the solution Femto (Pierce SuperSignal, Thermo Fisher Scientific, Rockford, Ill., USA) was applied. The induced chemiluminiscence was detected by a CCD camera (LAS 3000, Fuji Photo Film GmBH, Düsseldorf, Germany).
To assess the initiation of signaling pathways, a densitometric analysis using the program Quantity One (BioRad, Hercules, Calif., USA) was used. For statistical evaluation of the statistically significant response of the cellular signaling, one-way ANOVA with subsequent Dunnett post-hoc test was used. Data was statistically significant at P<0.05.

fasted C57BL/6 mice = assay: Food intake in fasted mice after SC administration; format: in vivo, mouse; settings: SC administration; for % control: food intake vs saline
How it was run: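 Male C57BL/6 mice, food-deprived 17 h, received saline, PrRP or lipidated analogs either SC at 1-10 mg/kg or ICV into the third ventricle at 4 nmol/mouse.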

[3] = target: T2, rat PrRP receptor in RC-4B/C cells (rat, UniProt Q64121 1-370); assay: competition with 125I-rat PrRP31 on RC-4B/C cells
T2 construct: whole, on cells; also called the rat receptor; GPR10
T2 sequence (looked up): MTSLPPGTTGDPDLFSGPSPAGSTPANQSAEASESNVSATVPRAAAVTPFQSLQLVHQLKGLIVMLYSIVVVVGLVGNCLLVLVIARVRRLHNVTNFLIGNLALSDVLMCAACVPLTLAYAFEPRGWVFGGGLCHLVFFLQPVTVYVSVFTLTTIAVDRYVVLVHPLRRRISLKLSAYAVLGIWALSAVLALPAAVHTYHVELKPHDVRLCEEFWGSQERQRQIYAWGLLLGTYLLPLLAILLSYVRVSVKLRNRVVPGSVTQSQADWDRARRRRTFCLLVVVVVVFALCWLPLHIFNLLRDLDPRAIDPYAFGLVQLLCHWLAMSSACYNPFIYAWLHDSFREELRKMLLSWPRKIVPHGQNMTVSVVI
Method: (§1) The rat pituitary cell line RC-4B/C (ATCC, Manassas, USA) was grown on 24-well plates which had their bottom coated with polyethyleneimine. The cells were grown to the optimal density of 300-450 thousand per well.
(§2) Plates were incubated for 60 minutes at room temperature. After incubation, the cells were solubilized in 0.1 mol/l solution of NaOH and the radioactivity bound to the cells was counted using a γ-counter. The experiments were performed in duplicate and repeated at least three times.

[4] = target: T2, rat PrRP receptor in RC-4B/C cells; assay: competition with 125I-rat PrRP31 on RC-4B/C cells; Ki by Cheng-Prusoff
Method: as §1, §2
For evaluation of competitive binding experiments, the program Graph Pad Prism Software (San Diego, Calif., USA) was used. A method of nonlinear regression assuming one-site binding was used.

## CCCCCCCC(=O)NC[C@H](N)C(=O)N[C@@H](CCCNC(=N)N)C(=O)N[C@@H](C)C(=O)N[C@@H](Cc1c[nH]cn1)C(=O)N[C@@H](CCC(N)=O)C(=O)N[C@@H](Cc1c[nH]cn1)C(=O)N[C@@H](CO)C(=O)N[C@@H](CCCC)C(=O)N[C@@H](CCC(=O)O)C(=O)N[C@H](C(=O)N[C@@H](CCCNC(=N)N)C(=O)N[C@H](C(=O)N1CCC[C@H]1C(=O)N[C@@H](CC(=O)O)C(=O)N[C@H](C(=O)N[C@@H](CC(N)=O)C(=O)N1CCC[C@H]1C(=O)N[C@@H](C)C(=O)N[C@@H](Cc1c[nH]c2ccccc12)C(=O)N[C@@H](Cc1ccc(O)cc1)C(=O)N[C@H](C(=O)NCC(=O)N[C@@H](CCCNC(=N)N)C(=O)NCC(=O)N[C@H](C(=O)N[C@@H](CCCNC(=N)N)C(=O)N1CCC[C@H]1C(=O)N[C@H](C(=O)NCC(=O)N[C@@H](CCCNC(=N)N)C(=O)N[C@@H](Cc1ccccc1)C(N)=O)C(C)C)[C@@H](C)CC)[C@@H](C)O)[C@@H](C)CC)[C@@H](C)O)[C@@H](C)O [Analog 2] (H-[Dap](Octanoyl)RAHQHS[Nle]ETRTPDINPAWYTGRGIRPVGRF-NH2)
[1]
  % of PrRP31 binding: 172%
[2]
  ERK signaling: agonist

## CCCCCCCCCCCC(=O)NC[C@H](N)C(=O)N[C@@H](CCCNC(=N)N)C(=O)N[C@@H](C)C(=O)N[C@@H](Cc1c[nH]cn1)C(=O)N[C@@H](CCC(N)=O)C(=O)N[C@@H](Cc1c[nH]cn1)C(=O)N[C@@H](CO)C(=O)N[C@@H](CCCC)C(=O)N[C@@H](CCC(=O)O)C(=O)N[C@H](C(=O)N[C@@H](CCCNC(=N)N)C(=O)N[C@H](C(=O)N1CCC[C@H]1C(=O)N[C@@H](CC(=O)O)C(=O)N[C@H](C(=O)N[C@@H](CC(N)=O)C(=O)N1CCC[C@H]1C(=O)N[C@@H](C)C(=O)N[C@@H](Cc1c[nH]c2ccccc12)C(=O)N[C@@H](Cc1ccc(O)cc1)C(=O)N[C@H](C(=O)NCC(=O)N[C@@H](CCCNC(=N)N)C(=O)NCC(=O)N[C@H](C(=O)N[C@@H](CCCNC(=N)N)C(=O)N1CCC[C@H]1C(=O)N[C@H](C(=O)NCC(=O)N[C@@H](CCCNC(=N)N)C(=O)N[C@@H](Cc1ccccc1)C(N)=O)C(C)C)[C@@H](C)CC)[C@@H](C)O)[C@@H](C)CC)[C@@H](C)O)[C@@H](C)O [Analog 3] (H-[Dap](Lauroyl)RAHQHS[Nle]ETRTPDINPAWYTGRGIRPVGRF-NH2)
[1]
  % of PrRP31 binding: 440%
[2]
  ERK signaling: agonist
Fasted C57BL/6 mice; 45 minutes, 5 mg/kg
  food intake: 0.12 g
  % control: 50%
Fasted C57BL/6 mice; 300 minutes, 5 mg/kg
  food intake: 0.61 g
  % control: 60%

## CCCC[C@H](NC(=O)[C@H](CO)NC(=O)[C@H](Cc1c[nH]cn1)NC(=O)[C@H](CCC(N)=O)NC(=O)[C@H](Cc1c[nH]cn1)NC(=O)[C@H](C)NC(=O)[C@H](CCCNC(=N)N)NC(=O)[C@@H](N)CN)C(=O)N[C@@H](CCC(=O)O)C(=O)N[C@H](C(=O)N[C@@H](CCCNC(=N)N)C(=O)N[C@H](C(=O)N1CCC[C@H]1C(=O)N[C@@H](CC(=O)O)C(=O)N[C@H](C(=O)N[C@@H](CC(N)=O)C(=O)N1CCC[C@H]1C(=O)N[C@@H](C)C(=O)N[C@@H](Cc1c[nH]c2ccccc12)C(=O)N[C@@H](Cc1ccc(O)cc1)C(=O)N[C@H](C(=O)NCC(=O)N[C@@H](CCCNC(=N)N)C(=O)NCC(=O)N[C@H](C(=O)N[C@@H](CCCNC(=N)N)C(=O)N1CCC[C@H]1C(=O)N[C@H](C(=O)NCC(=O)N[C@@H](CCCNC(=N)N)C(=O)N[C@@H](Cc1cccc2ccccc12)C(N)=O)C(C)C)[C@@H](C)CC)[C@@H](C)O)[C@@H](C)CC)[C@@H](C)O)[C@@H](C)O [Analog 7] (H-[Dap]RAHQHS[Nle]ETRTPDINPAWYTGRGIRPVGR[1Nal]-NH2)
[1]
  % of PrRP31 binding: 8%
[2]
  ERK signaling: agonist
Fasted C57BL/6 mice; 45 minutes, 10 mg/kg
  food intake: 0.16 g
  % control: 49%
Fasted C57BL/6 mice; 300 minutes, 10 mg/kg
  food intake: 0.88 g
  % control: 81%

B1: analog no. 3 (peptide)
peptide: [Dap](Lauroyl)RAHQHS[Nle]ETRTPDINPAWYTGRGIRPVGRF-NH2
modifications: N-terminus assumed
SMILES: CCCCCCCCCCCC(=O)NC[C@H](N)C(=O)N[C@@H](CCCNC(=N)N)C(=O)N[C@@H](C)C(=O)N[C@@H](Cc1c[nH]cn1)C(=O)N[C@@H](CCC(N)=O)C(=O)N[C@@H](Cc1c[nH]cn1)C(=O)N[C@@H](CO)C(=O)N[C@@H](CCCC)C(=O)N[C@@H](CCC(=O)O)C(=O)N[C@H](C(=O)N[C@@H](CCCNC(=N)N)C(=O)N[C@H](C(=O)N1CCC[C@H]1C(=O)N[C@@H](CC(=O)O)C(=O)N[C@H](C(=O)N[C@@H](CC(N)=O)C(=O)N1CCC[C@H]1C(=O)N[C@@H](C)C(=O)N[C@@H](Cc1c[nH]c2ccccc12)C(=O)N[C@@H](Cc1ccc(O)cc1)C(=O)N[C@H](C(=O)NCC(=O)N[C@@H](CCCNC(=N)N)C(=O)NCC(=O)N[C@H](C(=O)N[C@@H](CCCNC(=N)N)C(=O)N1CCC[C@H]1C(=O)N[C@H](C(=O)NCC(=O)N[C@@H](CCCNC(=N)N)C(=O)N[C@@H](Cc1ccccc1)C(N)=O)C(C)C)[C@@H](C)CC)[C@@H](C)O)[C@@H](C)CC)[C@@H](C)O)[C@@H](C)O
notes: analog of rat PrRP31
[3]
  % of PrRP31 binding: 440%
[4]
  Ki: 1.12 nM
